Where a name gives a salt, the structure may show the parent alone. Read-outs that look alike come from different tables or passages of the source. Blank lines part the entries; values can stand above or below the compound they belong to.
Tests used:
[1] = target: T1, dopamine-β-hydroxylase (DBH) (Bos taurus, UniProt P15101); test: in vitro DBH inhibition, conversion of tyramine to octopamine (absorbance at 330 nm); type: biochemical
T1 sequence (P15101 1-610): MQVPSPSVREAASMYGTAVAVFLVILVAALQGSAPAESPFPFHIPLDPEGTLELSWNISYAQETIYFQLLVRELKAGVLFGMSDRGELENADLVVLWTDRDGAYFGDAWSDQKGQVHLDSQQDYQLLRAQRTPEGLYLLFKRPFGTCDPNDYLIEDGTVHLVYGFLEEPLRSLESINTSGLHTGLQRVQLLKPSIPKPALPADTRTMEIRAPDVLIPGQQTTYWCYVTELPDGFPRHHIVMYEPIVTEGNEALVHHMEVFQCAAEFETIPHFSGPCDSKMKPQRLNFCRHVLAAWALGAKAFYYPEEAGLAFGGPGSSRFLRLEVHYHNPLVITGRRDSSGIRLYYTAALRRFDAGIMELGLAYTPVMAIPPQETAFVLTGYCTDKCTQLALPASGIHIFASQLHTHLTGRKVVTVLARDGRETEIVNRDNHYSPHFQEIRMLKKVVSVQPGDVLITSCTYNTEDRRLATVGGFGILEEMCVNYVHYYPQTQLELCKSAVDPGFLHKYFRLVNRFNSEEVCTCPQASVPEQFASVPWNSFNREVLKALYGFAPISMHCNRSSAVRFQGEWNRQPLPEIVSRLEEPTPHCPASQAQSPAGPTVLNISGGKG
Protocol: Compounds of the invention and other compounds useful in the method of the invention were screened for in vitro DBH inhibition by a standard procedure for assaying conversion of tyramine to octopamine in the presence of DBH. Octopamine was assayed following sodium periodate oxidation to p-hydroxybenzaldehyde by measuring spectrophotometric absorbance at 330 nm. Inhibition is given in molar concentration of compound at which DBH activity was halved (IC50). Melting points (mp) are given in °C.

[2] = mean arterial blood pressure, indwelling cannulae in tail artery; type: in vivo, Spontaneously hypertensive rats; conditions: 50 mg/kg i.p.
Protocol: Further, the same rats were dosed with a suspension or solution at a dose of 50 mg/kg of test compound i.p. and mean arterial blood pressure determined with indwelling cannulae inserted into the tail artery.

[3] = tested on: peripheral dopamine (DA) and norepinephrine (NE) levels; test: effects in vivo on peripheral dopamine (DA) and norepinephrine (NE) levels; parameters: species or system Spontaneously hypertensive rats; conditions: dosed twice about 18 hours apart, sacrificed about 2 hours after second dose, mean of 5 animals; for DA / NE: per gram of tissue
Protocol: Various compounds of the invention were tested for their effects in vivo on peripheral dopamine (DA) and norepinephrine (NE) levels substantially by the procedure of DaPrada and Zurcher, Life Sci., 19, 1161, (1976). Spontaneously hypertensive rats were dosed twice, the second dose being abut 18 hours after the first, and were sacrificed about 2 hours after the second dose.

[4] = Teresawa et al., Japan, Cir. J. 35, 339 (1971); cited from earlier work
[5] = target: T1, dopamine-β-hydroxylase (DBH); test: in vitro DBH inhibition, conversion of tyramine to octopamine (absorbance at 330 nm); type: biochemical; conditions: read-out: DBH inhibition, % at 10^-4 M
[6] = in vitro, tyramine to octopamine, read-out: IC50 value (molar concentration of compound at which DBH activity was halved)

SMILES: Oc1c(Cl)cc(Cn2c(S)nc3ccccc32)cc1Cl [Example 8, 1-(3,5-dichloro-4-hydroxybenzyl)-2-mercaptobenzimidazole]
IC50 [1, 6]: 3.8 µM

SMILES: Fc1cc(F)cc(Cn2c(S)nc3ccccc32)c1 [Example 6, 1-(3,5-difluorobenzyl)-2-mercaptobenzimidazole]
mean arterial pressure [2]: significant reduction in mean arterial pressure
IC50 [1, 6]: 6.2 µM
DA/NE Ratio [3]: 0.086
DA [3]: 0.607 µg/g
NE [3]: 7.054 µg/g

SMILES: Oc1c(F)cc(Cn2c(S)nc3ccccc32)cc1F [Example 9, 1-(3,5-difluoro-4-hydroxybenzyl)-2-mercaptobenzimidazole]
IC50 [1, 6]: 0.66 µM

SMILES: CCCCc1ccc(C(=O)O)nc1 [fusaric acid, reference compound]
IC50 [1]: ~0.8 µM
hepatotoxicity [4]: hepatotoxic

SMILES: COc1c(F)cc(Cn2c(S)nc3ccccc32)cc1F [Example 3, 1-(3,5-difluoro-4-methoxybenzyl)-2-mercaptobenzimidazole]
DA/NE Ratio [3]: 0.055
DA [3]: 0.397 µg/g
NE [3]: 7.82 µg/g

SMILES: Oc1ccc(Cn2c(S)nc3ccccc32)cc1 [Example 10, 1-(4-hydroxybenzyl)-2-mercaptobenzimidazole]
IC50 [1, 6]: 13 µM

SMILES: COc1ccc(Cn2c(S)nc3ccccc32)cc1 [Example 7, 1-(4-methoxybenzyl)-2-mercaptobenzimidazole]
inhibition at 100 µM [5]: 6%

SMILES: Sc1nc2ccccc2n1Cc1c(Cl)cccc1Cl [Example 2, 1-(2,6-dichlorobenzyl)-2-mercaptobenzimidazole]
inhibition at 100 µM [5]: 60%

SMILES: Sc1nc2ccccc2n1Cc1cc(Cl)cc(Cl)c1 [Example 4, 1-(3,5-dichlorobenzyl)-2-mercaptobenzimidazole]
inhibition at 100 µM [5]: 70%

The next lines start with the values.

IC50 [1, 6]: 130 µM
SMILES: NCc1nc2ccccc2n1Cc1cccc(F)c1 [Example 39, 1-[3-fluorobenzyl]-2-aminomethylbenzimidazole dihydrofluoride]

IC50 [1, 6]: 113 µM
SMILES: NCc1nc2ccccc2n1Cc1cccc(Cl)c1 [Example 40, 1-[3-chlorobenzyl]-2-aminomethylbenzimidazole dihydrochloride]

IC50 [1, 6]: 61 µM
SMILES: Sc1nc2ccccc2n1Cc1ccccc1 [Example 5, N-benzyl-2-mercaptobenzimidazole]

IC50 [1, 6]: 0.12 µM
SMILES: NCc1nc2ccccc2n1Cc1ccccc1 [Example 37, 1-Benzyl-2-aminomethylbenzimidazole hydrochloride]

IC50 [1, 6]: 69 µM
SMILES: NCc1nc2ccccc2n1Cc1ccc(Cl)c(Cl)c1 [Example 38, 1-[3,4-Dichlorobenzyl]-2-aminomethylbenzimidazole dihydrochloride]

Reference: patent US4857540A, “Dopamine-β-hydroxylase inhibitors” (SmithKline Beckman Corporation, priority 1987, dated 1989)
